Tests used:
[1] = molecular target: T1, LRRK2 WT (Homo sapiens, UniProt Q5S007); assay: In vitro kinase assay: LRRK2-mediated MBP phosphorylation; format: biochemical; conditions: dose-response
[2] = molecular target: T2, LRRK2 G2019S (Homo sapiens, UniProt Q5S007, G2019S); assay: In vitro kinase assay: G2019S LRRK2 autophosphorylation; format: biochemical; conditions: dose-response
Procedure: (§1) Transfection was performed by using Fugene HD reagent (Roche Applied Science) according to the manufacturer's instruction. For purification of recombinant LRRK1 and LRRK2 proteins, ACTA Purifier (GE Healthcare) FPLC system was used.
(§2) Resulting lysates were rotated at 4° C. for 30 min followed by centrifugation at 20,000×g for 15 min. The supernatants were injected into a GSTrap FF column pre-equilibrated with PBS at 0.5. mL/min flow after filtration using a 0.2 μm syringe filter (Corning). The bound proteins were eluted with buffer containing 10 mM GSH (Sigma), 150 mM NaCl, and 50 mM Tris-HCl (pH 8.0).
(§3) The in vitro kinase assay was performed as previously described. […] Recombinant LRRK2 and MBP or CST-4E-BP1 were combined before the kinase reaction. LRRK2 autophosphorylation is LRRK2 itself phosphorylation and MBP or GST-4E-BP1 phosphorylation is induced by LRRK2. After the kinase reaction, combined LRRK2 and MBP or GST-4E-BP1 were loaded on SDSPAGE and phosphorylated LRRK2 and MBP or GST-4E-BP1 could be detected separately an a single gel. Recombinant proteins and inhibitors were incubated at 30° C. in kinase assay buffer containing 20 mM Hepes (pH 7.4), 5 mM EGTA, and 20 mM β-glycerol phosphate. 0.5 μg MBP (Upstate) or 0.5 μg GST-4B-BP1, 50 μM ATP (Sigma), 20 mM MgCl2, and 1 μCi [γ-32P] ATP (PerkinElmer) was added after 5 min. The reaction was performed at 30° C. to reduce non-specific 32P incorporation for 15 min and terminated by the addition of 5×Laemmili sample buffer. […] Gels were stained by coomassie brilliant blue after fixation with 10% acetic acid and 40% methanol and then exposed to a Phosphoimager. Data were analyzed by ImageQuant 6.0 software.
(§4) To calculate the IC50 value, a dose-response curve was constructed and non-linear regression analysis using the equation for a sigmoid plot.

[3] = molecular target: T1, LRRK2 WT; assay: In vitro kinase assay: LRRK2 autophosphorylation; format: biochemical; conditions: dose-response
[4] = test system: rat primary cortical neuronal cultures transfected with G2019S LRRK2; assay: LRRK2-induced neuronal toxicity in primary cortical neuronal cultures (neurite shortening, TUNEL); format: cell-based; conditions: 0.5 μM
Procedure: Representative photomicrographs of each experimental group. LRRK2 and eGFP constructs were combined in a molar ratio of 10:1, respectively, and transfected by using of Lipofectamine 2000 (Invitrogen) at DIV (day in vitro) 14 into rat primary cortical neuronal cultures. Compounds (0.5 μM) were administrated at the time of transfection and continued until toxicity assessments. On DIV 16, images were collected on a Zeiss Automatic stage with Axiovision 6.0. (a) Low magnified photomicrographs; (b and c) High magnified photomicrographs. Scale bar=50 μm (a) and 10 μm (b and c);
Primary cortical neuronal cultures were prepared from gestational day 15 fetal rats as previously described. Gonzalez-Zulueta, M., et al. Manganese superoxide dismutase protects nNOS neurons from NMDA and nitric oxide-mediated neurotoxicity. J Neurosci 18, 2040-2055 (1998). All procedures used in this study were approved by the Johns Hopkins Medical Institute Animal Care Committee. Cell viability assays and DNA fragmentation (TUNEL assay) were performed as previously described. Smith, W. W., et al. Kinase activity of mutant LRRK2 mediates neuronal toxicity. Nat Neurosci 9, 1231-1233 (2006); West, A. B., et al. Parkinson's disease-associated mutations in LRRK2 link enhanced GTP-binding and kinase activities to neuronal toxicity. Hum Mol Genet 16, 223-232 (2007). The cortex was dissected, incubated for 15 min in 0.027% trypsin, and then transferred to modified Eagle's medium (MEM)/10% horse serum/10% fetal bovine serum/2 mM glutamine followed by trituration. Dissociated cells were plated at a density of 3-4×10^5 cells per well in polyornithine-coated plates. After 4 days the cells were treated with 10 μg of 5-fluoro-2′-deoxyuridine to prevent proliferation of nonneuronal cells. Cells were maintained in MEM/5% horse serum/2 mM glutamine in 8% CO2 incubator. The medium was changed twice weekly. For assessment of LRRK2-mediated neuronal injury, LRRK2 and eGFP constructs were combined in a molar ratio of 10:1, respectively, and transfected into neurons with Lipofectamine 2000 (Invitrogen) at DIV (day in vitro) 14. On DIV 16, images were collected on a Zeiss Automatic stage with Axiovision 6.0. Viable neurons were defined as having at least one smooth extension (neurite) with twice the length of the cell body. The percentage of eGFP-positive injured neurons in each experimental group relative to those neurons transfected with eGFP was calculated.

[5] = molecular target: T3, LRRK1 WT (Homo sapiens, UniProt Q38SD2); assay: In vitro kinase assay: LRRK1-mediated MBP phosphorylation; format: biochemical
[6] = molecular target: T3, LRRK1 WT; assay: In vitro kinase assay: LRRK1 autophosphorylation; format: biochemical
[7] = from literature; cited from earlier work
[8] = molecular target: T2, LRRK2 G2019S; assay: In vitro kinase assay: G2019S LRRK2-mediated MBP phosphorylation; format: biochemical; conditions: dose-response
Procedure: as §1, §2, §3, §4

[9] = molecular target: G2019S LRRK2 (Homo sapiens, UniProt Q5S007, G2019S); assay: In vitro kinase assay: LRRK2-mediated phosphorylation of 4E-BP1; format: biochemical
Procedure: The GST-4E-BP1 expressing vector was generated using the Invitrogen Gateway LR Clonase System. Briefly, an entry clone containing the 4E-BP1 sequence was reacted with the destination vector, pDEST-15 in the presence of the LR clonase mixture. After the clonase reaction, the mixture was transformed into One Shot BL21 chemically competent E. coli. The transformed cells were grown on ampicillin containing LB agar plate for one day at 37° C. Colonies containing GST-4E-BP1 were isolated. For protein induction, 100 μM IPTG was added to 100 mL culture and incubated for 3 h at 30° C. After IPTG incubation, cells were collected by centrifugation at 3,000×g for 15 min. The pellet was lysed with sonication in the presence of lysis butter containing 0.5% TX-100, 50 mM Tris-HCl (pH 8.0), 100 mM NaCl, 0.5 mM EGTA, 5 mM MgCl2, 2 mM DTT, and complete protease inhibitors. The lysate was centrifugated at 15,000×g for 15 min and the supernatant was incubated with GSH-sepharose beads for 2 h at 4° C. After incubation, the beads were washed with PBS containing an additional 150 mM NaCl and 0.1% TX-100 three times. The protein was eluted with elution buffer containing Hepes (pH 8.0), 150 mM NaCl, 30% glycerol, and 30 mM glutathione. The eluted proteins were stored at −80° C.
The in vitro kinase assay was performed as previously described. West, A. B. et al. Parkinson's disease-associated mutations in leucine-rich repeat kinase 2 augment kinase activity. Proc Natl Acad Sci USA 102, 16842-16847 (2005). Recombinant LRRK2 and MBP or CST-4E-BP1 were combined before the kinase reaction. LRRK2 autophosphorylation is LRRK2 itself phosphorylation and MBP or GST-4E-BP1 phosphorylation is induced by LRRK2. After the kinase reaction, combined LRRK2 and MBP or GST-4E-BP1 were loaded on SDSPAGE and phosphorylated LRRK2 and MBP or GST-4E-BP1 could be detected separately an a single gel. Recombinant proteins and inhibitors were incubated at 30° C. in kinase assay buffer containing 20 mM Hepes (pH 7.4), 5 mM EGTA, and 20 mM β-glycerol phosphate. 0.5 μg MBP (Upstate) or 0.5 μg GST-4B-BP1, 50 μM ATP (Sigma), 20 mM MgCl2, and 1 μCi [γ-32P] ATP (PerkinElmer) was added after 5 min. The reaction was performed at 30° C. to reduce non-specific 32P incorporation for 15 min and terminated by the addition of 5×Laemmili sample buffer. The reactions were then heated at 70° C. for 10 min and resolved by 12% SDS-PAGE. Gels were stained by coomassie brilliant blue after fixation with 10% acetic acid and 40% methanol and then exposed to a Phosphoimager. Data were analyzed by ImageQuant 6.0 software.

[10] = test system: C. elegans expressing LRRK2 G2019S in DA neurons; assay: Transgenic nematode model of LRRK2 G2019S-induced DA neurodegeneration; format: in vivo, Caenorhabditis elegans
Procedure: Nematodes were maintained following the standard procedures. Brenner, S., 771 GENETICS 71-94 (1974). Isogenic worm strains expressing LRRK2, G2019S, UAXX [baInlX; Pdat-1::LRRK2 G2019S, Pdat-1::gfp] were generated via microinjection, integrated into the genome and out-crossed three times. Age-synchronized worms were obtained by treating gravid adults with 2% sodium hypochlorite and 0.5M NaOH to isolate embryos. Lewis, J. A., 48 METHODS CELL BIOL. 3-29 (1995). These embryos were treated with indicated concentrations of LRRK2 kinase inhibitors, which were dissolved in 1% DSMO, for 24 h. at 20° C. with gentle shaking. The worms were then washed and transferred into NGM plates seeded with OP50 bacteria, and incubated as 20° C. The six anterior DA neurons (4 CEP and 2 ADE neurons) of 30 animals/trial were examined for neurodegeneration when the animals were 7 days old. A total of 90 animals for each treatment were analyzed (3 trials of 30 animals/trial). […] See Hamamichi et al., 105(2) PROC. NATL. ACAD. SCI. USA 728-33 (2008); and Cao et al, 25 J. NEUROSCI. 3801-12 (2005). For each trial, 30 worms were transferred into a 2% agarose pad, immobilized with 2 mM levamisole, and analyzed using Nikon Eclipse E800 epifluorescence microscope equipped with Endow GFP HYQ filter cube (Chrom Technology, Rockingham, Vt.). Images were captured with a Cool Snap CCD camera (Photometrics, Tucson, Ariz.) driven by MetaMorph software (Universal Imaging, West Chester, Pa.).
To determine whether the LRRK2 kinase inhibitors protect against LRRK2-induced neurodegeneration in vivo, the LRRK2 kinase inhibitors were tested in the C. elegans model of LRRK2 G2019S-induced neurodegeneration described above. The DA transporter (dat-1) was used to direct expression of LRRK2 G2019S in DA neurons.

T3 sequence (Q38SD2 whole entry): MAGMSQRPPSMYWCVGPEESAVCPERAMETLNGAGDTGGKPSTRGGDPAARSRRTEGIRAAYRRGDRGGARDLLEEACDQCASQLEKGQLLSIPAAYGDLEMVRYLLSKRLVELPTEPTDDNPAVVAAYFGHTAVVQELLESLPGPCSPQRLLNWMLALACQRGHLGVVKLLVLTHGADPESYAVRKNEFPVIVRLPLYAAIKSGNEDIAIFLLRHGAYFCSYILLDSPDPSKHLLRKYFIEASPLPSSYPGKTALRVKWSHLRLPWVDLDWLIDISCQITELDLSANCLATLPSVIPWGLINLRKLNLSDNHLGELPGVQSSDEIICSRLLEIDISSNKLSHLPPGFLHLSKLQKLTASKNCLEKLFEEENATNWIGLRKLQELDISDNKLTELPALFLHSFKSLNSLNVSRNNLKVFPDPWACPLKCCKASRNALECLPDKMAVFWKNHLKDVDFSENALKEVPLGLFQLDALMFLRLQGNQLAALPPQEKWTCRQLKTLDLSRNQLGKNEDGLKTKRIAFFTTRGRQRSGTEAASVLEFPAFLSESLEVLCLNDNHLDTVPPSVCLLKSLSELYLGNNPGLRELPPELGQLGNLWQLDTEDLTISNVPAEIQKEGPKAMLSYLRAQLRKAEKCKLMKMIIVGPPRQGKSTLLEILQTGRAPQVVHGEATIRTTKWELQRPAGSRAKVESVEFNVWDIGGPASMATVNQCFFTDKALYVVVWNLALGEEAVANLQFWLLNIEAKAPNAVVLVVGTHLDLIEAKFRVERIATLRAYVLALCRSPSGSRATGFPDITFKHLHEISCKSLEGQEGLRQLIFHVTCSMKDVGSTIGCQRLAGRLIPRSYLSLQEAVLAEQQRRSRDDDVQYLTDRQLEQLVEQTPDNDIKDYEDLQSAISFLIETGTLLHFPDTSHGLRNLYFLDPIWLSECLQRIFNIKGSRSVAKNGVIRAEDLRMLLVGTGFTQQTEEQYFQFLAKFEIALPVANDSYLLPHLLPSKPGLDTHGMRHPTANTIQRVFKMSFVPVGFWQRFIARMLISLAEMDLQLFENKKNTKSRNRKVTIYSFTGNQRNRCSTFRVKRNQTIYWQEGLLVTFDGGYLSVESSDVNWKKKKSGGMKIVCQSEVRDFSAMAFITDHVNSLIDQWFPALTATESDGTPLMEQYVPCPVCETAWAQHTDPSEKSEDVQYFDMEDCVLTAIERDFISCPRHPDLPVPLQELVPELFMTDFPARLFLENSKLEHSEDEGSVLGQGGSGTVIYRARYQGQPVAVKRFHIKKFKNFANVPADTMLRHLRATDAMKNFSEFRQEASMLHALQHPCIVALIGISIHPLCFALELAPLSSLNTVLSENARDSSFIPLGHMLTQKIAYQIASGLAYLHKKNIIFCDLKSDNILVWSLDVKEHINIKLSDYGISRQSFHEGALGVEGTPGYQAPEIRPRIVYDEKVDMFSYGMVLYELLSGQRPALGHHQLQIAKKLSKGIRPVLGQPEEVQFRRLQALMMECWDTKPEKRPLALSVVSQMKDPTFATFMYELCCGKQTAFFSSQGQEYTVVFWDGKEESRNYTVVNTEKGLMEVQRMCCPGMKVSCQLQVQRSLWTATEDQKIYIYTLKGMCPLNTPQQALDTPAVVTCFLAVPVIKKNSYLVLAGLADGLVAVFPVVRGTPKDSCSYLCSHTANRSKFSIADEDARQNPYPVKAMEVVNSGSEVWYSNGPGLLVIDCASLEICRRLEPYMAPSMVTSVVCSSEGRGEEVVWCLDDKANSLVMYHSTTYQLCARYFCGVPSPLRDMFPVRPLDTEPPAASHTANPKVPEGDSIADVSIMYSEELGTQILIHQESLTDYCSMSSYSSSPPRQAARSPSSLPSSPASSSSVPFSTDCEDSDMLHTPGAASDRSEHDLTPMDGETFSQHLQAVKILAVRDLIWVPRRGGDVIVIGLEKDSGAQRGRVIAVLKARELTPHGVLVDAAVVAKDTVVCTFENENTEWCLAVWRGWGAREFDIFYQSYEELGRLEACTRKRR
T2 sequence (Q5S007 whole entry G2019S): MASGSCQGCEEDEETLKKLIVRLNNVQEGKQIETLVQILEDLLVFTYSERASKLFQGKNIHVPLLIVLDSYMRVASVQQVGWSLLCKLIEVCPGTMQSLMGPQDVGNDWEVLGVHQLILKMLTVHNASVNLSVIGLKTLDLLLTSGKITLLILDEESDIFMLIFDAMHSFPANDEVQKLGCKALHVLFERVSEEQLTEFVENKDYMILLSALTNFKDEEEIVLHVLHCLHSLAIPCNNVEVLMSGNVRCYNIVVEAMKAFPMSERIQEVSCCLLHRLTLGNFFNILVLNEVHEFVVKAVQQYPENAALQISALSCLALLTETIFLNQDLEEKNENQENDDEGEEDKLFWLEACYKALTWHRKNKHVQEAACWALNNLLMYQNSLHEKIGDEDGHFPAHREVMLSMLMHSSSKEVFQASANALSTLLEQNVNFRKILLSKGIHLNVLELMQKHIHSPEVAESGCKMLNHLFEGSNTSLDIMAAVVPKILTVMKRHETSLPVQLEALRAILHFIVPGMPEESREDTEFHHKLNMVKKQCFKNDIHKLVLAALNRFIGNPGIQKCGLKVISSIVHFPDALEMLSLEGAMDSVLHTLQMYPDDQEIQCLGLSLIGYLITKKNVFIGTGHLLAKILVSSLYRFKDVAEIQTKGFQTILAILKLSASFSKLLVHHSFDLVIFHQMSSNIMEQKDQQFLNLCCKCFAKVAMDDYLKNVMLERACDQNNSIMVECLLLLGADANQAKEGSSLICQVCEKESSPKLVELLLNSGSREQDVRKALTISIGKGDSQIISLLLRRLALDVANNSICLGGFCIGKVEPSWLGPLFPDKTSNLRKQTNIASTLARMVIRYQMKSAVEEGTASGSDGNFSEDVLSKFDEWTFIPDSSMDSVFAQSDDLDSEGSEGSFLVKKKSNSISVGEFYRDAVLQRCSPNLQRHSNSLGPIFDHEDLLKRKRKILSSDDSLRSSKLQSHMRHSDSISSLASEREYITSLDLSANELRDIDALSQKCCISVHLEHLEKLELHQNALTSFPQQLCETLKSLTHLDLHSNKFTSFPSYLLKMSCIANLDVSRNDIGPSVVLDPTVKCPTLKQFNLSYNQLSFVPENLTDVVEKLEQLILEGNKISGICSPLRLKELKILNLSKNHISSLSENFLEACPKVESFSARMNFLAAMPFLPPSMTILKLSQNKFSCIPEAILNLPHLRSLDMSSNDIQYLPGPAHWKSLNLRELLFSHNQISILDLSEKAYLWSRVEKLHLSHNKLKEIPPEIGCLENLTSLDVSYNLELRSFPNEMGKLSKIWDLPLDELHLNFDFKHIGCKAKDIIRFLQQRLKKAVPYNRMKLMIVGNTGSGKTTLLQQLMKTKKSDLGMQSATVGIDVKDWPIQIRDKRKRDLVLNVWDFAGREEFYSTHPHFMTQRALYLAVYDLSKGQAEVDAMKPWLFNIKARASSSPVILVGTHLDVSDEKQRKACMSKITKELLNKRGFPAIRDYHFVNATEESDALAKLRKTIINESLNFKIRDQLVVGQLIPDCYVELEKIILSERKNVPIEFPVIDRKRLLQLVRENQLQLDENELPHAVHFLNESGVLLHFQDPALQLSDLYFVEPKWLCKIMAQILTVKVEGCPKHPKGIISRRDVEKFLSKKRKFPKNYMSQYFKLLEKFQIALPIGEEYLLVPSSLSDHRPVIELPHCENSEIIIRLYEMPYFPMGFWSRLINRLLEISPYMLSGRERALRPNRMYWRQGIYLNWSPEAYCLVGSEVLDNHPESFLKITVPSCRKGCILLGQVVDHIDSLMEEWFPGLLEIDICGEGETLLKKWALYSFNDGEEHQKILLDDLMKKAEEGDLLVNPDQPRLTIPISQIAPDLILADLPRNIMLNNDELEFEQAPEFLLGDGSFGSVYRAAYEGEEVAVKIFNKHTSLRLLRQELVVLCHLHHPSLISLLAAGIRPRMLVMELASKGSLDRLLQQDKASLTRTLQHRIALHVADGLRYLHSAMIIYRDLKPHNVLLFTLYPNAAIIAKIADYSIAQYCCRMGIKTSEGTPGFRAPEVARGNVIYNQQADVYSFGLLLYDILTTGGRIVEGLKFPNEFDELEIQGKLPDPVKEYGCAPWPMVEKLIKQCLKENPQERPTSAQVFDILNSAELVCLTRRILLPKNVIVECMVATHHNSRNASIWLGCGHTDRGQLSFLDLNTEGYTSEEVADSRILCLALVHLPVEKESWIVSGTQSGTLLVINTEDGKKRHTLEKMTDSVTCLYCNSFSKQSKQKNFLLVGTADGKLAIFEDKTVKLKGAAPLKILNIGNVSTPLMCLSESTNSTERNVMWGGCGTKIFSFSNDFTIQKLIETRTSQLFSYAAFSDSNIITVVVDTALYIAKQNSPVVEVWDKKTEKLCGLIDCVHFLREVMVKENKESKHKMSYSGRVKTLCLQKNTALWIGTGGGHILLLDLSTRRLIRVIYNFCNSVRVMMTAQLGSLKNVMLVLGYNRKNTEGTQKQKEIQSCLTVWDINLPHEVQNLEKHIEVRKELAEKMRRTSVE
T1 sequence (Q5S007 whole entry): as the sequence (Q5S007 whole entry G2019S) above, with S2019G counted along it
Chain of G2019S LRRK2 (Q5S007 whole entry G2019S): as the sequence (Q5S007 whole entry G2019S) above

O=C1Nc2ccccc2/C1=C1/Nc2ccccc2C1=O [Inhibitor 69, Indirubin]
effect on WT LRRK2 MBP phosphorylation [1]: no effect
effect on G2019S LRRK2 autophosphorylation [2]: no effect
effect on WT LRRK2 autophosphorylation [3]: no effect
G2019S LRRK2 toxicity [4]: failed to inhibit
effect on LRRK1 MBP phosphorylation [5]: no effect
effect on LRRK1 autophosphorylation [6]: no effect
crossing of the blood-brain barrier [7]: known to cross the blood-brain barrier
effect on G2019S LRRK2 MBP phosphorylation [8]: no effect
LRRK2-mediated phosphorylation of 4E-BP1 [9]: did not inhibit

CNC(=O)c1cc(Oc2ccc(NC(=O)Nc3ccc(Cl)c(C(F)(F)F)c3)cc2)ccn1 [Sorafenib]
G2019S LRRK2 toxicity [4]: completely protected
effect on LRRK1 MBP phosphorylation [5]: minimal to no effect
IC50 ([5]; Table 3, mean of three experiments): 13.8 µM
effect on LRRK1 autophosphorylation [6]: minimal to no effect
worms with wild-type DA neurons (4 CEP and 2 ADE) ([10]; 25 μM, 7-day-old worms, n=90, 48% with 1% DMSO): 62%
rescue of DA neurodegeneration ([10]; 7 day-old worms): protect worms from neurodegeneration

Reference: patent publication US20150018301A1, “LRRK-2-Mediated Neuronal Toxicity” (THE JOHNS HOPKINS UNIVERSITY, priority 2009, published 2015)
